Data: US11685746B2, “Heteroaryl compounds for treating Huntington's disease” (PTC THERAPEUTICS, INC., priority 2018, dated 2023)
pIC50: −log10 of the molar value.

The compounds below were run on Endogenous Huntingtin Protein (assay: Endogenous Huntingtin Protein Assay (MSD plates, MW1 or MAB2166 capture antibody)). Conditions: Table 1.
Format: cell-based
Description: Endogenous Huntingtin Protein Assay
Meso Scale Discovery (MSD) 96-well or 384-well plates were coated overnight at 4° C. with MW1 (expanded polyglutamine) or MAB2166 monoclonal antibody (for capture) at a concentration of 1 μg/mL in PBS (30 μL per well). Plates were then washed three times with 300 μL wash buffer (0.05% Tween-20 in PBS) and blocked (100 μL blocking buffer; 5% BSA in PBS) for 4-5 hours at room temperature with rotational shaking and then washed three times with wash buffer.
Samples (25 μL) were transferred to the antibody-coated MSD plate and incubated overnight at 4° C. After removal of the lysates, the plate was washed three times with wash buffer, and 25 μL of #5656S (Cell signaling; rabbit monoclonal) secondary antibody (diluted to 0.25 μg/mL in 0.05% Tween-20 in blocking buffer) was added to each well and incubated with shaking for 1 Hour at room temperature. Following incubation with the secondary antibody, the wells were rinsed with wash buffer after which 25 μL of goat anti-rabbit SULFO TAG secondary detection antibody (required aspect of the MSD system) (diluted to 0.25 μg/mL in 0.05% Tween-20 in blocking buffer) was added to each well and incubated with shaking for 1 hour at room temperature. After rinsing three times with wash buffer, 150 μL of read buffer T with surfactant (MSD) were added to each empty well, and the plate was imaged on a SI 6000 imager (MSD) according to manufacturers' instructions provided for 96- or 384-well plates.

Row | SMILES | pIC50
1 | Cn1cc2cc(-c3nn4cc(C5CCNCC5)nc4s3)cc(C#N)c2n1 [Compound 27, 2-methyl-5-[6-(piperidin-4-yl)imidazo[2,1-b][1,3,4]thiadiazol-2-yl]-2H-indazole-7-carbonitrile] | ≥ 7.00
2 | Cn1cc2cc(-c3nn4cc(C5CCNCC5)nc4s3)cc(F)c2n1 [Compound 28, 7-fluoro-2-methyl-5-[6-(piperidin-4-yl)imidazo[2,1-b][1,3,4]thiadiazol-2-yl]-2H-indazole] | ≥ 7.00
3 | Cc1cn2cc(-c3nn4cc(C5CCNCC5)nc4s3)cc(C#N)c2n1 [Compound 29, 2-methyl-6-[6-(piperidin-4-yl)imidazo[2,1-b][1,3,4]thiadiazol-2-yl]imidazo[1,2-a]pyridine-8-carbonitrile] | 6.30 to 7.00
4 | Cc1cn2cc(-c3nn4cc(C5CCNCC5)nc4s3)cc(F)c2n1 [Compound 30, 8-fluoro-2-methyl-6-[6-(piperidin-4-yl)imidazo[2,1-b][1,3,4]thiadiazol-2-yl]imidazo[1,2-a]pyridine] | 6.30 to 7.00
5 | CN1CCC(N(C)c2nn3cc(-c4cc(C#N)c5nn(C)cc5c4)nc3s2)CC1 [Compound 31, 2-methyl-5-{2-[methyl(1-methylpiperidin-4-yl)amino]imidazo[2,1-b][1,3,4]thiadiazol-6-yl}-2H-indazole-7-carbonitrile] | 5.05 to 5.52
6 | Cn1cc2cc(-c3cn4nc(C5CCNCC5)sc4n3)cc(C#N)c2n1 [Compound 32, 2-methyl-5-[2-(piperidin-4-yl)imidazo[2,1-b][1,3,4]thiadiazol-6-yl]-2H-indazole-7-carbonitrile] | 6.30 to 7.00
7 | Cn1cc2cc(-c3cn4nc(C5=CC6CCC(C5)N6)sc4n3)cc(C#N)c2n1 (stereo not shown) [Compound 33, 5-[2-(8-azabicyclo[3.2.1]oct-2-en-3-yl)imidazo[2,1-b][1,3,4]thiadiazol-6-yl]-2-methyl-2H-indazole-7-carbonitrile] | 5.52 to 6.00
8 | C[C@@H]1C[C@@H](N(C)c2nc3sc(-c4ccc(-c5cn[nH]c5)cc4O)nc3s2)C[C@H](C)N1 [Compound 34, 2-(5-{[(2R,4s,6S)-2,6-dimethylpiperidin-4-yl](methyl)amino}[1,3]thiazolo[5,4-d][1,3]thiazol-2-yl)-5-(1H-pyrazol-4-yl)phenol] | ≥ 7.00
9 | CN(c1nc2sc(-c3ccc(-c4ccnc(O)c4)cc3O)nc2s1)C1CCNCC1 [Compound 35, 4-(3-hydroxy-4-{5-[methyl(piperidin-4-yl)amino][1,3]thiazolo[5,4-d][1,3]thiazol-2-yl}phenyl)pyridin-2-ol] | 5.05 to 5.52
10 | CN(c1nc2sc(-c3ccc(-c4ccn(C)c(=O)c4)cc3O)nc2s1)C1CCNCC1 [Compound 36, 4-(3-hydroxy-4-{5-[methyl(piperidin-4-yl)amino][1,3]thiazolo[5,4-d][1,3]thiazol-2-yl}phenyl)-1-methylpyridin-2(1H)-one] | 6.30 to 7.00
11 | CC1(C)CC(Oc2nc3sc(-c4ccc(-c5cn[nH]c5)cc4O)nc3s2)CC(C)(C)N1 [Compound 37, 5-(1H-pyrazol-4-yl)-2-{5-[(2,2,6,6-tetramethylpiperidin-4-yl)oxy][1,3]thiazolo[5,4-d][1,3]thiazol-2-yl}phenol] | ≥ 7.00
12 | Cn1ccc(-c2ccc(-c3nc4sc(OC5CC(C)(C)NC(C)(C)C5)nc4s3)c(O)c2)cc1=O [Compound 38, 4-(3-hydroxy-4-{5-[(2,2,6,6-tetramethylpiperidin-4-yl)oxy][1,3]thiazolo[5,4-d][1,3]thiazol-2-yl}phenyl)-1-methylpyridin-2(1H)-one] | 6.30 to 7.00
13 | [2H]C([2H])([2H])n1cc(-c2ccc(-c3nc4sc(N(C)C5CCNCC5)nc4s3)c(O)c2)cn1 [Compound 39, 2-{5-[methyl(piperidin-4-yl)amino][1,3]thiazolo[5,4-d][1,3]thiazol-2-yl}-5-[1-(^2H3)methyl-1H-pyrazol-4-yl]phenol] | ≥ 7.00
14 | CN(c1nc2sc(-c3ccc(-c4cnn(C)c4)cc3O)nc2s1)C1CCNCC1 [Compound 40, 2-{5-[methyl(piperidin-4-yl)amino][1,3]thiazolo[5,4-d][1,3]thiazol-2-yl}-5-(1-methyl-1H-pyrazol-4-yl)phenol] | ≥ 7.00
15 | Cc1cn2cc(-c3nc4sc(C5=CCNCC5)nc4s3)nc2c(C)n1 [Compound 41, 6,8-dimethyl-2-[5-(1,2,3,6-tetrahydropyridin-4-yl)[1,3]thiazolo[5,4-d][1,3]thiazol-2-yl]imidazo[1,2-a]pyrazine] | 6.30 to 7.00
16 | CN(c1nc2sc(-c3ncc(-c4cn[nH]c4)cc3O)nc2s1)C1CC(C)(C)NC(C)(C)C1 [Compound 42, 2-{5-[methyl(2,2,6,6-tetramethylpiperidin-4-yl)amino][1,3]thiazolo[5,4-d][1,3]thiazol-2-yl}-5-(1H-pyrazol-4-yl)pyridin-3-ol] | ≥ 7.00
17 | CN(c1nc2sc(-c3ccc(-c4cn[nH]c4F)cc3O)nc2s1)C1CC(C)(C)NC(C)(C)C1 [Compound 43, 5-(5-fluoro-1H-pyrazol-4-yl)-2-{5-[methyl(2,2,6,6-tetramethylpiperidin-4-yl)amino][1,3]thiazolo[5,4-d][1,3]thiazol-2-yl}phenol] | ≥ 7.00
18 | Cc1cn2cc(-c3nc4sc(C5CCNCC5)nc4s3)nc2c(C)n1 [Compound 44, 6,8-dimethyl-2-[5-(piperidin-4-yl)[1,3]thiazolo[5,4-d][1,3]thiazol-2-yl]imidazo[1,2-a]pyrazine] | 5.52 to 6.00
19 | Cn1ncc(-c2ccc(-c3nc4sc(OC5CC(C)(C)NC(C)(C)C5)nc4s3)c(O)c2)c1F [Compound 45, 5-(5-fluoro-1-methyl-1H-pyrazol-4-yl)-2-{5-[(2,2,6,6-tetramethylpiperidin-4-yl)oxy][1,3]thiazolo[5,4-d][1,3]thiazol-2-yl}phenol] | ≥ 7.00
20 | CN(c1nc2sc(-c3ccc(-c4ccn(C)c(=O)c4)cc3O)nc2s1)C1CC(C)(C)NC(C)(C)C1 [Compound 46] | ≥ 7.00
21 | CN(c1nc2sc(-c3ncc(-c4cn[nH]c4)cc3O)nc2s1)C1CCNCC1 [Compound 47, 2-{5-[methyl(piperidin-4-yl)amino][1,3]thiazolo[5,4-d][1,3]thiazol-2-yl}-5-(1H-pyrazol-4-yl)pyridin-3-ol] | ≥ 7.00
22 | CN(c1nc2sc(-c3ccc(-c4cnn(C)c4F)cc3O)nc2s1)C1CC(C)(C)NC(C)(C)C1 [Compound 48, 5-(5-fluoro-1-methyl-1H-pyrazol-4-yl)-2-{5-[methyl(2,2,6,6-tetramethylpiperidin-4-yl)amino][1,3]thiazolo[5,4-d][1,3]thiazol-2-yl}phenol] | 6.30 to 7.00
23 | [2H]C([2H])([2H])n1cc(-c2cnc(-c3nc4sc(N(C)C5CC(C)(C)NC(C)(C)C5)nc4s3)c(O)c2)cn1 [Compound 49, 5-[1-(^2H3)methyl-1H-pyrazol-4-yl]-2-{5-[methyl(2,2,6,6-tetramethylpiperidin-4-yl)amino][1,3]thiazolo[5,4-d][1,3]thiazol-2-yl}pyridin-3-ol] | ≥ 7.00
24 | CCn1cc(-c2cnc(-c3nc4sc(N(C)C5CC(C)(C)NC(C)(C)C5)nc4s3)c(O)c2)cn1 [Compound 50, 5-(1-ethyl-1H-pyrazol-4-yl)-2-{5-[methyl(2,2,6,6-tetramethylpiperidin-4-yl)amino][1,3]thiazolo[5,4-d][1,3]thiazol-2-yl}pyridin-3-ol] | 6.30 to 7.00
25 | [2H]C([2H])([2H])n1cc(-c2cnc(-c3nc4sc(N(C)C5CCNCC5)nc4s3)c(O)c2)cn1 [Compound 51, 2-{5-[methyl(piperidin-4-yl)amino][1,3]thiazolo[5,4-d][1,3]thiazol-2-yl}-5-[1-(^2H3)methyl-1H-pyrazol-4-yl]pyridin-3-ol] | ≥ 7.00
